Experimental data: patent US10125118B2, “Heteroaryl compounds and their use as therapeutic drugs” (Dong-A Socio Holdings Co., Ltd., priority 2015, dated 2018)
pIC50: −log10 of the molar value.

Key:
[1] = target: human c-MER catalytic domain (Homo sapiens (Human), UniProt Q12866); test: LanthaScreen TR-FRET kinase assay, c-MER; conditions: read-out: Mer TK inhibition (IC50); Biochemical IC50, TR-FRET, 10 uM ATP
[2] = test system: CD8-MerTK in Ba/F3-CDM cells; test: In cell MER kinase assay, Ba/F3-CDM cell proliferation without IL-3 (Celltiter-Glo); assay type: cell-based, murine; conditions: 48 hours compound treatment, read-out: Cell growth inhibition (GI50)
Summary of the method: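 Ba/F3 cells, IL-3-dependent, transfected with CD8-MerTK and grown without IL-3 in DMEM/10% FBS. IL-3-supplemented Ba/F3 cells run in parallel as a cytotoxicity control.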

Chain of human c-MER catalytic domain (Q12866 587-858): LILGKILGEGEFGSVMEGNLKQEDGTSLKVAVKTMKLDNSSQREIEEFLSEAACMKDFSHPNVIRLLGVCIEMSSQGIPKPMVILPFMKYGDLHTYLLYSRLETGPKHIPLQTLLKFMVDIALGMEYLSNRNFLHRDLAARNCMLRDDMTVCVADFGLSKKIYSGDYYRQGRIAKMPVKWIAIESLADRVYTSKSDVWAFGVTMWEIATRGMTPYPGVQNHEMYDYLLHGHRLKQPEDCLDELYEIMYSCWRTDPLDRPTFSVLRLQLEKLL

Compound	pIC50 [1]	GI50 [2]
CN1CCN(Cc2ccc(-c3ccc(CO[C@H]4COC[C@@H]4NC(=O)c4cc(-c5cnn(C)c5)cnc4N)cc3)cc2C(F)(F)F)CC1 [Example 449, 2-amino-5-(1-methyl-1H-pyrazol-4-yl)-N-((3S,4R)-4-((4′-((4-methylpiperazin-1-yl)methyl)-3′-(trifluoromethyl)-[1,1′-biphenyl]-4-yl)methoxy)-tetrahydrofuran-3-yl)nicotinamide]	> 8.00	< 100 nM
CN1CCN(C(C)(C)c2ccc(-c3ccc(CO[C@H]4COC[C@@H]4NC(=O)c4cc(-c5cnn(C)c5)cnc4N)cc3)cc2)CC1 [Example 450, 2-amino-5-(1-methyl-1H-pyrazol-4-yl)-N-((3S,4R)-4-((4′-(2-(4-methylpiperazin-1-yl)propan-2-yl)-[1,1′-biphenyl]-4-yl)methoxy)tetrahydrofuran-3-yl)nicotinamide]	> 8.00	< 100 nM
Cn1cc(-c2cnc(N)c(C(=O)N[C@H]3COC[C@@H]3OCc3ccc(-c4ccc(CN5CCN(CCO)CC5)cc4)cc3)c2)cn1 [Example 451, 2-amino-N-((3S,4R)-4-((4′-((4-(2-hydroxyethyl)piperazin-1-yl)methyl)-[1,1′-biphenyl]-4-yl)methoxy)tetrahydrofuran-3-yl)-5-(1-methyl-1H-pyrazol-4-yl)nicotinamide]	> 8.00	< 100 nM
Cn1cc(-c2cnc(N)c(C(=O)N[C@H]3COC[C@@H]3OCc3ccc(-c4ccc(CN5CCN(CCO)CC5)c(C(F)(F)F)c4)cc3)c2)cn1 [Example 452, 2-amino-N-((3S,4R)-4-((4′-((4-(2-hydroxyethyl)piperazin-1-yl)-methyl)-3′-(trifluoromethyl)-[1,1′-biphenyl]-4-yl)methoxy)tetrahydrofuran-3-yl)-5-(1-methyl-1H-pyrazol-4-yl)nicotinamide]	> 8.00	< 100 nM
Cn1cc(-c2cnc(N)c(C(=O)N[C@H]3COC[C@@H]3OCc3ccc(-c4ccc(C(C)(C)N5CCN(CCO)CC5)cc4)cc3)c2)cn1 [Example 453, 2-amino-N-((3S,4R)-4-((4′-(2-(4-(2-hydroxyethyl)piperazin-1-yl)-propan-2-yl)-[1,1′-biphenyl]-4-yl)methoxy)tetrahydrofuran-3-yl)-5-(1-methyl-1H-pyrazol-4-yl)nicotinamide]	> 8.00	100 to 500 nM
